90 compounds from a melting point compilation (Tetko et al.; mined from patent text by program, amines drawn as free bases though some values may be those of a salt) can be followed below.

The compound `CC(C)n1nc(-c2c(OCCF)nc(N)nc2-c2ccccc2)ccc1=O` came in with a melting point of 129 to 130 °C.

Compound `C#Cc1ccc(C=O)cc1` yielded a melting point of 122 to 123 °C. With `CCOc1ccc2[nH]c(=O)sc2c1` the figure was 147 °C. `Cc1cccc(Nc2ccccc2C(=O)N(C)O)c1C` showed a melting point of 70 to 71 °C.

`COc1cccc2c1C13CCN(C(=O)OCC(Cl)(Cl)Cl)C(C2)C1(C(=O)OCC(Cl)(Cl)Cl)CCC(=O)C3` (stereo not given): the melting point lay in the range of 115 to 116 °C. As for `CCNC(=O)c1ccc(N2CCN(Cc3cnc4c(c3)[nH]c(=O)n3cccc43)CC2)c(Cl)c1`, the melting point was 266 to 271 °C.

Take `Cc1ccc(C(=O)NCC(O)CO)cc1-n1c(C)cc(OCc2ccccc2CNC(=O)Nc2cc(C(C)(C)C)nn2-c2ccc(Cl)c(O)c2)c(Cl)c1=O` (stereo not given): the melting point lay in the range of 169 to 171 °C. In the case of `O=C(O)CC(NS(=O)(=O)c1c(Cl)cc(Cl)cc1Cl)c1ccccc1` (stereo not given), the melting point fell in the range of 218 to 219 °C. As for `COc1cccc(CN2C(=O)N(c3cnn(Cc4c(C)noc4C)c3)C(=O)C2(C)C)c1`, the melting point was in the range of 107 to 108 °C. The compound `Cc1c(C(=O)C2CSC(c3cccnc3)N2)c2ccccc2n1C(=O)N(C)C` (stereo not given) had a melting point of 130 to 132 °C. `COCCOc1ccc(C=O)cc1O` had a melting point of 74 to 75 °C.

Compound `O=C(c1ccc(Cl)cc1)c1ccc2c(c1)C(c1cccc(Cl)c1)SCc1nnnn1-2` (stereo not given) returned a melting point of 212 °C. Regarding `CS(=O)(=O)OCCNc1ccc(Cl)cc1[N+](=O)[O-]`, the melting point was in the range of 108 to 109 °C.

With `CC(=O)C(C(=O)OC(C)(C)C)C(=O)c1ccc(C(=O)C(C(C)=O)C(=O)OC(C)(C)C)cc1` (stereo not given), the melting point is 94 to 96 °C. `CCCCc1nc(C=O)c(Br)[nH]1` returned a melting point of 113 °C. Compound `O=C(O)C1=Cc2cc(I)ccc2OC1C(F)(F)F` (stereo not given) yielded a melting point of 168 to 170 °C. Consider `Cc1cc2nc(NC(=O)C(C)(C)C)nc(Cl)c2[nH]1`, for which the melting point lay within 162 to 163 °C. `O=C(C(=CO)c1ccccc1)c1ccccc1` came in with a melting point of 110 to 114 °C.

In turn, `CNCC1Cc2cc(Cl)cc(-c3ccccc3OC)c2O1` (stereo not given) gave a melting point of 100 to 102 °C. For `CCCc1c(OCC(O)COc2ccc3c(=O)cc(C(=O)O)sc3c2CCC)ccc(C(C)=O)c1O` (stereo not given), the melting point is 280 to 281 °C. With `NCCc1ccc(-c2ccc(O)cc2)cc1` the figure was above 350 °C; with `O=C(O)CCNC(=O)c1cccc(NC(=O)c2csc(NC(=O)NCc3ccccc3)n2)c1`, 157 °C. `NC(=O)N(O)Cc1ccc(-c2ccccn2)s1` displayed a melting point of 168 °C.

For `C=C(C)C(=O)N[C@@H](CCC(=O)O)C(=O)O`, the melting point lay within 128 to 130 °C.

In turn, `O=S(=O)(c1nc(-c2ccccc2)c(-c2ccccc2)n1COCc1ccccc1)C(F)(F)C(F)F` gave a melting point of 97.5 to 98.5 °C.

Compound `O=C(O)C(Cl)=C(Cl)C(=O)O` returned a melting point of 107 to 110 °C. The compound `CC(=NO)c1noc2ccccc12` gave a melting point of 193 to 195 °C. As for `C1=C(c2ccccc2)CCN(Cc2c[nH]c3ncccc23)C1`, the melting point lay in the range of 177 to 179 °C. For the compound `CCOC(=O)CN(c1ccc(Cl)cc1)[C@H]1c2cc(C#N)ccc2OC(C)(C)[C@@H]1O`, the melting point was found to be 172 °C. `CCOC(=O)c1ccc(OC)nc1C(F)(F)F`: the melting point fell in the range of 150 to 152 °C. For `CN(CCN(C)S(=O)(=O)c1ccc(F)cc1)C(=O)c1ccc(Nc2ccnc3cc(C(F)(F)F)ccc23)cc1`, the melting point was 191 to 193 °C. The same measure for `CN(CCO)S(=O)(=O)c1cc([N+](=O)[O-])c(Cl)s1`: 62 °C; for `CCOCCOc1cc(C(O)C#Cc2ccc(C(=O)O)c(O)c2)cc2c1C(C)(C)CCC2(C)C` (stereo not given): 120 °C. `CC1(C)c2ccc(CCN3CCN(c4nsc5ccccc45)CC3)cc2C(C)(C)C1O` (stereo not given): the melting point fell in the range of 47 to 49 °C. The compound `O=C(C=Cc1ccc(C(F)(F)F)cc1)N1CCOCC1` registered a melting point of 142 to 144 °C. Turning to `O=C(Nc1nc2ccccc2s1)Nc1cccc2c1C1CCCCN1C2=O` (stereo not given), the melting point is 260 °C. Compound `Cc1nnc(N2N=C(c3ccc(Cl)cc3)c3cc4c(cc3C[C@H]2C)OCO4)s1` gave a melting point of 105 to 108 °C. Take `CCOC(=O)c1ccc(-c2cc3c(NCCCN4CCOCC4)ncnc3[nH]2)cc1`: the melting point was 231 to 234 °C. In turn, `ICCOc1ccc(C2=C(c3ccccc3)CCCc3ccccc32)cc1` displayed a melting point of 154 to 156 °C.

Turning to `CCn1nc(C(=O)OC(C)C)cc(Nc2cncc3ccccc23)c1=O`, the melting point was 192 to 193 °C. With `O=C(Nc1ccc(Cl)cc1)O[C@@H]1CN=C(c2ccccc2)O[C@H]1c1ccccc1` (racemic) the figure was 124 °C; with `CN(C)S(=O)(=O)c1cc(C(=O)O)cc(N2CCCC2)c1Oc1ccccc1`, 214 to 215 °C; with `CC(=O)c1ccc(Nc2cccc(-c3cnc(N)nc3)c2)c([N+](=O)[O-])c1`, 233 to 236 °C. The compound `CCOC(=O)CC(NC(=O)c1ccccc1)C(=O)C(C)C` (stereo not given) registered a melting point of 44 to 46 °C.

Take `CN1Cc2c(I)ncn2-c2ccccc2C1=O`: the melting point fell in the range of 174 to 176 °C.

The compound `O=C(O)c1ccc2c(c1)S(=O)(=O)c1ccccc1NC2` had a melting point of 304 to 306 °C. `CC(=O)Oc1ccc(OCc2ccccc2)cc1CC(Br)CBr` (racemic) returned a melting point of 72 to 74 °C. `COC(=O)c1ccc(N=Cc2cccc(Cl)c2)cn1` yielded a melting point of 139 to 142 °C. The same measure for `O=C(NOCC(O)CO)c1ccc(F)c(F)c1Nc1ccccc1F` (stereo not given): 113 to 115 °C; for `COC(=O)C(C(=O)OC)c1cccc2c1NC(=O)C2=O`: 137 to 140 °C; for `NNc1nc(F)c(C(F)(F)F)cc1Cl`: 104 to 106 °C. Turning to `COCCOc1cccc(-c2ccc(C3CCN(S(=O)(=O)C(C)(C)C(=O)NO)CC3)cc2C)n1`, the melting point lay within 134 to 138 °C. Consider `Oc1c(Cc2ccccc2)cc(Br)c2ccccc12`, for which the melting point lay in the range of 123 to 125 °C. The compound `COC(=O)c1cc(CCNc2ncnc3nccnc23)ccc1Oc1cc(C(F)(F)F)ccn1` came in with a melting point of 171 to 172 °C. On to `O=C(O)COc1ccc(-c2c3ccccc3cc3sc4cc(OCC(=O)O)ccc4c23)cc1`, for which the melting point is 220 to 222 °C. `Cc1ccc(S(=O)(=O)N2C[C@@H]3C[C@H]2CN3C)cc1` displayed a melting point of 87 to 88 °C. Compound `COc1ccc(Sc2cc3ccccc3nn2)cc1` registered a melting point of 108 °C. With `CCS(=O)(=O)N(c1cc(-c2nsc(C(F)(F)F)c2Cl)c(Cl)cc1Cl)S(=O)(=O)CC` the figure was 153 to 154 °C; with `COc1cc(Nc2c(C#N)cnc3cc(I)c(OC)cc23)c(Cl)cc1Cl`, 253 to 254 °C; with `CCN1CCN(NC(=O)c2cc(Cl)c(N)cc2OC)CC1`, 177 to 178 °C. On to `CC(C)(C)OC(=O)/C(=C/c1ccccc1)C(=O)c1cc2ccccc2cc1O`, for which the melting point fell in the range of 132 to 135 °C. As for `CN(CCOc1ccc(CC(Cl)C(N)=O)cc1)c1nc2ccccc2o1` (stereo not given), the melting point lay in the range of 149 to 151 °C.

The compound `Cc1nc(-c2ccc(C(F)(F)F)cc2)oc1CSc1ccc(CC(=O)O)cc1Cl` gave a melting point of 158 to 160 °C. As for `O=CNC1(c2ccccc2)CCN(Cc2ccccc2)CC1`, the melting point turned out to be 140 °C. Turning to `CC(=NOCCO)c1ccc2ccccc2c1`, the melting point lay in the range of 94 to 96 °C. `Oc1cccc2c1CC(NC1CC1)CO2` (stereo not given) had a melting point of 147 to 148 °C. In turn, `CC(c1oc2ccccc2c(=O)c1-c1cccc(F)c1)n1nc(-c2cnc(N)nc2)c2c(N)ncnc21` (stereo not given) displayed a melting point of 264 to 268 °C. Compound `COc1ccc(-c2[nH]nc3c2C(=O)c2c(NC(=O)NNC(=O)c4ccc(O)c(O)c4)cccc2-3)cc1` displayed a melting point above 300 °C. With `CCOC(=O)Cc1csc(NC(=S)Nc2cc(Cl)ccc2C)n1`, the melting point lay in the range of 177 to 179 °C. The same measure for `CN(C)C1(c2ccccc2)CCC(c2[nH]c3ccccc3c2CC2CCCCC2)CC1` (stereo not given): 195 to 198 °C. Compound `CCOc1ccc(C(C)=O)cc1S(N)(=O)=O` had a melting point of 148 to 151 °C. For `N#CC1(O)CCN(c2ncccc2F)CC1`, the melting point was 76 to 78 °C.

`Cc1cc(C=O)c(OCCCCCCc2ccccc2)c(C=O)c1`: the melting point was found to be 64 °C. `COC1=C(OC)C(=O)C2=C(CC(CCCCCCCCOC(C)=O)C2)C1=O`: the melting point fell in the range of 47 to 48 °C. As for `Cc1ccc(-c2nc3ccccc3nc2-c2ccc(C)cc2)cc1`, the melting point was 149 °C. With `CS(=O)(=O)c1ccc(-c2cc(CO)nn2C2CCCCCC2)cc1` the figure was 116 to 118 °C; with `N#CC1=C(c2cccs2)Nc2n[nH]cc2C1c1cccc(C#N)c1Br` (stereo not given), above 280 °C; with `COCCOC(=O)C1=C(C)NC(C)=C(c2nnco2)C1c1cccc(Cl)c1Cl` (stereo not given), 190 to 192 °C. The same measure for `COc1ccc(C#CC(=Nc2ccc(OC)cc2)N2CCN(Cc3ccc(C)cc3)CC2)cc1`: 107 °C; for `CSC(SC)=C(C(=O)C(C)(C)C)n1cncn1`: 60 °C. Consider `O=S(=O)(NC(=S)NC1CCCCC1)c1cnccc1NC1CCCCCC1`, for which the melting point fell in the range of 195 to 197 °C. As for `COC1(c2cccc3[nH]ccc23)CCCNC1` (stereo not given), the melting point turned out to be 212 °C. Turning to `O=S(=O)(NCCCCOc1ccc(-c2cc[nH]n2)cc1)c1ccc(Br)cc1`, the melting point fell in the range of 157 to 158 °C.

`CCCOc1ccccc1-c1nc(N)cc(=O)[nH]1` showed a melting point of 184 °C. In the case of `O=c1c(Cl)c(CCl)nc2scnn12`, the melting point lay within 193 to 195 °C. With `CC(=O)NC[C@H]1CN(c2ccc(-c3noc(C)n3)c(F)c2)C(=O)O1` the figure was 177 to 179 °C; with `C[C@H]1CCCN(CCCOc2ccc(-c3nc4cccnc4c(=O)n3C)cc2)C1`, 83.5 to 88.5 °C. The compound `CC12CCC(=O)C=C1CCC1C2=CCC2(C)C1CCC2(O)C(=O)CCl` (stereo not given) registered a melting point of 227 to 228 °C. Regarding `N#Cc1ccc(Nc2nc(Cl)ccc2[N+](=O)[O-])cc1`, the melting point is 175 to 178 °C.

`COc1ccc(S(=O)(=O)c2cc3c(cc2OC)OC(C)(C)[C@@H](O)[C@@H]3N2CCCC2=O)cc1` (relative stereo) gave a melting point of 286 to 287 °C.
